In patent US6987114B1, “Antiviral pyrimidinedione derivatives and process for the preparation thereof” (Samjin Pharmaceutical Co., Ltd, priority 1999, dated 2006):
Converted amounts (≈) assume the structure as drawn. Where two headings read alike, the source gives them in different places.

Experiments:
mock-infected MT-4 cells = experiment: Cytotoxicity based on viability of mock-infected host cells (MTT method); type: cell-based; conditions: mock-infected MT-4 cells, MTT method, 4 or 5 days at 37° C.
Method in brief: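 Mock-infected MT-4 cells at 2.5×10^5 cells/ml were exposed to various concentrations of test compound, run in parallel with HIV-infected (1000 CCID50) cultures. After 4 or 5 days at 37° C., host-cell viability was read by MTT.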

HIV = experiment: microbe, parasite or virus in culture; type: cell-based
Method in brief: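 MT-4 cells (2.5×10^5 cells/ml) infected with 1000 CCID50 HIV, added at once to compound dilutions, incubated 4 or 5 days at 37° C. Protection from virus-induced cytopathic effect read by MTT; cytotoxicity from MTT viability of mock-infected cells in parallel.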

[1] = Human immunodeficiency virus 1, MT4, HIV-infected MT-4 cells, MTT method, 4 or 5 days at 37° C., read-out: ED50 (the source's name)
[2] = Human immunodeficiency virus 1, MT4, read-out: ED50

Row | EC50 (HIV; [1]) [µg/mL] | melting point [°C] | SMILES | CD50 (mock-infected MT-4 cells) [µg/mL] | EC50 (HIV; [2]) [µg/mL]
1 | 0.002 (≈ 0.00492 µM) | 184 to 186 | COc1cccc(Cn2c(C(=O)c3cc(C)cc(C)c3)c(C(C)C)c(=O)[nH]c2=O)c1 [Example 30, 1-(3-Methoxybenzyl)-5-isopropyl-6-(3,5-dimethylbenzoyl)-2,4-pyrimidinedione] | 3.83 | 
2 | > 2.8 | 159 to 161 | Cc1cc(C)cc(Sc2c(C(C)C)c(=O)[nH]c(=O)n2Cc2cccc(Cl)n2)c1 [Example 122, 1-(2-Chloropyridin-6-ylmethyl)-5-isopropyl-6-(3,5-dimethylphenyl)thio-2,4-pyrimidinedione] | 2.80 | 
3 | 0.026 (≈ 0.0644 µM) | 226 to 229 | CCc1c(C(=O)c2cc(C)cc(C)c2)n(Cn2nnc3ccccc32)c(=O)[nH]c1=O [Example 143, 1-(1H-benzotriazol-1-ylmethyl)-5-ethyl-6-(3,5-dimethylbenzoyl)-2,4-pyrimidinedione] | 9.76 | 
4 | < 0.0002 | 146 to 148 | Cc1cc(C)cc(Oc2c(C(C)C)c(=O)[nH]c(=O)n2CC2CC2)c1 [Example 4, 1-(Cyclopropyl)methyl-5-isopropyl-6-(3,5-dimethylphenoxy)-2,4-pyrimidinedione] | 12.70 | 
5 | 0.043 (≈ 0.11 µM) | 221 to 223 | CCc1c(Sc2cc(C)cc(C)c2)n(Cc2ccccc2C#N)c(=O)[nH]c1=O [Example 37, 1-(2-Cyanobenzyl)-5-ethyl-6-(3,5-dimethylphenyl)thio-2,4-pyrimidinedione] | >100.00 | 
6 | 0.03 (≈ 0.0719 µM) | 246 to 247 | Cc1cc(C)cc(C(=O)c2c(C(C)C)c(=O)[nH]c(=O)n2Cn2nnc3ccccc32)c1 [Example 144, 1-(1H-benzotriazol-1-ylmethyl)-5-isopropyl-6-(3,5-dimethyl-benzoyl)-2,4-pyrimidinedione] | 8.89 | 
7 | 0.004 (≈ 0.00963 µM) | 246 to 248 | Cc1cc(C)cc(Oc2c(C(C)C)c(=O)[nH]c(=O)n2Cc2ccc3ccccc3n2)c1 [Example 134, 1-(Quinolin-2-ylmethyl)-5-isopropyl-6-(3,5-dimethyl-phenoxy)-2,4-pyrimidinedione] | 66.80 | 
8 | 0.082 (≈ 0.202 µM) | 238 to 240 | Cc1cc(C)cc(Sc2c(C(C)C)c(=O)[nH]c(=O)n2Cc2ccccc2C#N)c1 [Example 38, 1-(2-Cyanobenzyl)-5-isopropyl-6-(3,5-dimethylphenyl)-thio-2,4-pyrimidinedione] | >100.00 | 
9 | 1.37 (≈ 3.34 µM) | 154 to 156 | CCc1c(Oc2cc(C)cc(C)c2)n(Cc2cc(OC)cc(OC)c2)c(=O)[nH]c1=O [Example 57, 1-(3,5-Dimethoxybenzyl)-5-ethyl-6-(3,5-dimethylphenoxy)-2,4-pyrimidinedione] | 36.80 | 
10 | > 7.72 | 145 to 148 | CCc1c(Sc2cc(C)cc(C)c2)n(Cc2cccc(Cl)n2)c(=O)[nH]c1=O [Example 121, 1-(2-Chloropyridin-6-ylmethyl)-5-ethyl-6-(3,5-dimethyl-phenyl)thio-2,4-pyrimidinedione] | 7.72 | 
11 | 0.0089 (≈ 0.0215 µM) | 218 to 220 | CCc1c(C(=O)c2cc(C)cc(C)c2)n(Cc2ccc3ccccc3n2)c(=O)[nH]c1=O [Example 135, 1-(Quinolin-2-ylmethyl)-5-ethyl-6-(3,5-dimethylbenzoyl)-2,4-pyrimidinedione] | 6.80 | 
12 | 0.23 (≈ 0.527 µM) | 220 to 222 | COc1cc(Cn2c(C(=O)c3cc(C)cc(C)c3)c(C(C)C)c(=O)[nH]c2=O)cc(OC)c1 [Example 60, 1-(3,5-Dimethoxybenzyl)-5-isopropyl-6-(3,5-dimethyl-benzoyl)-2,4-pyrimidinedione] | 12.09 | 

Row | SMILES | EC50 (HIV; [1]) [µg/mL] | melting point [°C] | CD50 (mock-infected MT-4 cells) [µg/mL] | EC50 (HIV; [2]) [µg/mL]
13 | Cc1cc(C)cc(Sc2c(C(C)C)c(=O)[nH]c(=O)n2Cc2cc(Cl)cc(Cl)c2)c1 [Example 80, 1-(3,5-Dichlorobenzyl)-5-isopropyl-6-(3,5-dimethylphenyl)thio-2,4-pyrimidinedione] |  | 194 to 196 | 46.83 | 0.049 (≈ 0.109 µM)
14 | CCc1c(Oc2cc(C)cc(C)c2)n(Cc2cccnc2)c(=O)[nH]c1=O [Example 117, 1-(Pyridin-3-ylmethyl)-5-ethyl-6-(3,5-dimethylphenoxy)-2,4-pyrimidinedione] |  | 230 to 232 | 40.20 | 0.061 (≈ 0.174 µM)
